Columns and labels:
Assay in all cases: relative viability (nuclei count vs DMSO), 5 days (fraction); higher = more cells survive
[1] = compound: C1CC1C(=O)NC2=NNC3=C2C=CC(=C3)C4=CC(=CC=C4)C(=O)NC5CC5 [XMD13-2] + CC(=O)Nc1cccc(-n2c(=O)n(C3CC3)c(=O)c3c(Nc4ccc(I)cc4F)n(C)c(=O)c(C)c32)c1 [Trametinib] (partner 0.02 µM)
In short: (§1)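 Medians of duplicate plates are given as relative viability. That measure is the nuclei count in treated wells divided by the count in vehicle wells. Counts were taken on 4× images of lung cancer cell lines in 1536-well plates, 5 days after pin-tool dosing the day after seeding with one drug alone or a fixed anchor-drug dose plus five library-drug doses (not always all listed) in √10 steps.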

[2] = compound: C1CC1C(=O)NC2=NNC3=C2C=CC(=C3)C4=CC(=CC=C4)C(=O)NC5CC5 [XMD13-2] + CC(C)C[C@H](NC(=O)[C@H](Cc1ccccc1)NC(=O)c1cnccn1)B(O)O [Bortezomib] (partner 0.002 µM)
In short: as §1

[3] = compound: C1CC1C(=O)NC2=NNC3=C2C=CC(=C3)C4=CC(=CC=C4)C(=O)NC5CC5 [XMD13-2] + C[C@@H](Oc1cc(-c2cnn(C3CCNCC3)c2)cnc1N)c1c(Cl)ccc(F)c1Cl [Crizotinib] (partner 1 µM)
In short: as §1

[4] = compound: Cc1ccc(C(=O)Nc2cccc(C(F)(F)F)c2)cc1Nc1cncc(C(N)=O)c1 [ALW-II-49-7] + CS(=O)(=O)N1CCN(Cc2cc3nc(-c4cccc5[nH]ncc45)nc(N4CCOCC4)c3s2)CC1 [Pictilisib] (partner 1 µM)
In short: as §1

Cell Line | relative viability ([1]; first compound 0.05 µM) | relative viability ([1]; first compound 0.1581 µM) | relative viability ([1]; first compound 0.5 µM) | relative viability ([1]; first compound 1.581 µM) | relative viability ([1]; first compound 5 µM) | relative viability ([2]; first compound 0.05 µM) | relative viability ([2]; first compound 0.1581 µM) | relative viability ([2]; first compound 0.5 µM) | relative viability ([2]; first compound 1.581 µM) | relative viability ([2]; first compound 5 µM) | relative viability ([3]; first compound 0.05 µM) | relative viability ([3]; first compound 0.1581 µM) | relative viability ([3]; first compound 0.5 µM) | relative viability ([3]; first compound 1.581 µM) | relative viability ([3]; first compound 5 µM) | relative viability ([4]; first compound 0.08 µM) | relative viability ([4]; first compound 0.253 µM) | relative viability ([4]; first compound 0.8 µM) | relative viability ([4]; first compound 2.53 µM) | relative viability ([4]; first compound 8 µM)
PC-14 | 0.892 | 0.713 | 0.788 | 0.723 | 0.983 | 0.903 | 0.888 | 0.828 | 0.806 | 0.916 | 1.03 | 0.961 | 0.909 | 0.818 | 0.969 | 0.602 | 0.599 | 0.696 | 0.544 | 0.553
NCI-H2087 | 0.194 | 0.196 | 0.198 | 0.198 | 0.23 | 0.917 | 1.25 | 1.08 | 0.782 | 0.856 | 0.821 | 0.776 | 0.913 | 0.83 | 0.897 | 1.12 | 1.14 | 0.722 | 0.959 | 0.933
HOP-62 | 0.397 | 0.4 | 0.443 | 0.426 | 0.407 | 1.03 | 0.726 | 0.842 | 1.23 | 0.756 | 0.871 | 0.889 | 0.933 | 0.939 | 0.439 | 0.68 | 0.97 | 0.857 | 0.621 | 0.491
EKVX | 0.383 | 0.341 | 0.248 | – | 0.299 | 1.23 | 1.03 | 1.06 | 1.1 | 1.09 | 1.05 | 1.21 | 1.06 | 0.977 | 1.12 | 0.42 | 0.475 | 0.438 | 0.398 | 0.499
EMC-BAC-2 | 0.986 | 0.893 | 0.824 | – | 0.805 | 1.17 | 1.04 | 1.12 | 1.07 | 0.923 | 0.818 | 0.79 | 0.795 | 0.745 | 0.36 | 0.507 | 0.59 | 0.567 | 0.556 | 0.46
HARA | 0.667 | 0.948 | 1.16 | 0.776 | 0.674 | 1.31 | 1.11 | 0.671 | 1.17 | 1.17 | 1.2 | 1.05 | 1.13 | 1.1 | 0.486 | 0.416 | 0.386 | 0.431 | 0.483 | 0.497
LU99A | 0.581 | 0.532 | 0.546 | 0.54 | 0.352 | 1.2 | 1.06 | 1.12 | 0.992 | 0.718 | 0.581 | 0.489 | 0.558 | 0.429 | 0.393 | 0.323 | 0.325 | 0.297 | 0.325 | 0.293
NCI-H441 | 0.569 | 0.452 | 0.459 | 0.535 | 0.538 | 0.652 | 0.49 | 0.524 | 0.464 | 0.594 | 0.842 | 0.715 | 0.875 | 0.656 | 0.578 | 0.439 | 0.382 | 0.49 | 0.458 | 0.378
NCI-H23 | 0.358 | 0.432 | 0.438 | 0.371 | 0.353 | 1.36 | 0.988 | 1.04 | 0.987 | 1.22 | 0.759 | 0.518 | 0.506 | 0.411 | 0.423 | 0.524 | 0.448 | 0.459 | 0.526 | 0.441
NCI-H647 | 0.621 | 0.4 | 0.587 | 0.431 | 0.305 | 1.59 | 1.16 | 1.29 | 1.11 | 0.549 | 1.25 | 0.903 | 1.12 | 1.03 | 0.548 | 0.489 | 0.507 | – | 0.469 | 0.499
201T | 0.712 | 0.748 | 0.736 | 0.703 | 0.783 | 1.12 | 1.12 | 1.16 | 1.15 | 1.18 | 1 | 1.01 | 1 | 0.988 | 1.07 | 0.666 | 0.684 | 0.771 | 0.714 | 0.628
NCI-H1734 | 0.783 | 0.653 | 0.753 | 0.662 | 0.627 | 1.35 | 0.954 | 0.887 | 0.729 | 0.768 | 0.91 | 0.655 | 0.66 | 0.594 | 0.474 | 0.491 | 0.42 | 0.491 | 0.48 | 0.499
NCI-H596 | 0.826 | 0.857 | 0.965 | 0.954 | 0.798 | 1.1 | 0.881 | 1.34 | 1.11 | 1.2 | 1.05 | 0.916 | 0.98 | 0.884 | 1.05 | 0.423 | 0.418 | 0.416 | 0.369 | 0.397
